Values quoted from earlier work, collected in article PMC4078388 (EJNMMI Research, 2014).

Test system: INS-1 tumour
Conditions: Balb/c nude mice, 1 h after injection
Description: One additional challenge when imaging β-cells is the limited amount of overall GLP-1 receptors available which requires the administration of low amounts of peptide with a high specific activity in order to avoid receptor blocking [[13]]. One potential way to further increase the specific activity and therefore reduce the amount of tracer necessary to obtain a clear image is to attach several chelators to the peptide allowing more radioactivity per molecule.

[Lys^40(^68Ga-DOTA)]exendin-3
uptake in INS-1 tumour: 8.9 ± 3.1 %iA/g | uptake in the pancreas: 6.7 ± 1.8 %iA/g
